Data as given in patent publication US20230233569A1 (Revolution Medicines, Inc., priority 2020, published 2023).

Legend:
Test in all cases: Disruption of BRAF RBD interaction with Ras (FRET / MOA assay, with Cyclophilin A)
Format in all cases: biochemical
KRAS G12C = KRAS G12C (Homo sapiens, UniProt P01116+P62937, G12C); conditions: KRAS G12C; read-out: KRAS G12C FRET data IC50
In short: (§1)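 Cyclophilin A-dependent ternary complex assay. K-Ras loaded with nucleotide; BRAF RBD as effector. Cpd top 30 μM final, 3 h at 25 °C. Readout: TR-FRET ratio, IC50.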

KRAS G12D = KRAS G12D (Homo sapiens, UniProt P01116+P62937, G12D); conditions: read-out: KRAS G12D FRET data, IC50
In short: as §1

KRAS G12S = KRAS G12S (Homo sapiens, UniProt P01116+P62937, G12S); conditions: read-out: KRAS G12S FRET data, IC50
In short: as §1

KRAS G12V = KRAS G12V (Homo sapiens, UniProt P01116+P62937, G12V); conditions: KRAS G12V; read-out: KRAS G12V FRET data IC50
In short: as §1

KRAS G13C = KRAS G13C (Homo sapiens, UniProt P01116+P62937, G13C); conditions: KRAS G13C; read-out: KRAS G13C FRET data IC50
In short: as §1

KRAS G13D = KRAS G13D (Homo sapiens, UniProt P01116+P62937, G13D); conditions: KRAS G13D; read-out: KRAS G13D FRET data IC50
In short: as §1

KRAS WT = KRAS WT (Homo sapiens, UniProt P01116+P62937); conditions: KRAS WT; read-out: KRAS WT FRET data IC50
In short: as §1

NRAS G12C = NRAS G12C (Homo sapiens, UniProt P01111+P62937, G12C); conditions: NRAS G12C; read-out: NRAS G12C FRET data IC50
KRAS Q61H = KRAS Q61H (Homo sapiens, UniProt P01116+P62937, Q61H); conditions: KRAS Q61H; read-out: KRAS Q61H FRET data IC50
In short: (§2)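 IC50 reflects compound-driven Ras:Cyclophilin A ternary complex displacing BRAF RBD, read as lowered TR-FRET ratio relative to DMSO after Eu anti-His (10 nM) and APC anti-GST (50 nM) detection for 1.5 h. Prior incubation 3 h, 25° C, with 12.5 nM GMPPNP-loaded Ras, 50 nM BRAF RBD, 25 μM Cyclophilin A; top compound 30 μM.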

NRAS Q61K = NRAS Q61K (Homo sapiens, UniProt P01111+P62937, Q61K); conditions: NRAS Q61K; read-out: NRAS Q61K FRET data IC50
In short: as §2

NRAS Q61R = NRAS Q61R (Homo sapiens, UniProt P01111+P62937, Q61R); conditions: NRAS Q61R; read-out: NRAS Q61R FRET data IC50
In short: as §2

KRAS G13C, sequence (P01116 1-169 isoform P01116-2 G13C): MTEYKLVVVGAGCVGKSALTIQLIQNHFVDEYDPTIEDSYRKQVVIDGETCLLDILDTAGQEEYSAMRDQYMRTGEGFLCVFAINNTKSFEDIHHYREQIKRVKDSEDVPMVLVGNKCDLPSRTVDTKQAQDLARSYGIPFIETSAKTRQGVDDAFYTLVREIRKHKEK
KRAS G13C, sequence (P62937 whole entry): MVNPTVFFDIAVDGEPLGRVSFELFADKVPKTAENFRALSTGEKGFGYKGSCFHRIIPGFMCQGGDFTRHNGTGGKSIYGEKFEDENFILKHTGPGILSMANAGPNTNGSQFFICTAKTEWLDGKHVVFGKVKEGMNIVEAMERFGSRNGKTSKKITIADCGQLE
NRAS G12C, sequence (P01111 whole entry G12C): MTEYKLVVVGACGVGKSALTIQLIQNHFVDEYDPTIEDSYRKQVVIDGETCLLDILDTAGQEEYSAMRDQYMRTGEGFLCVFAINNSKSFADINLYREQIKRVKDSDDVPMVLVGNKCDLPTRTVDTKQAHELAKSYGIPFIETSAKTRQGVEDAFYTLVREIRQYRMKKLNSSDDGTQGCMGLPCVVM
NRAS G12C, sequence (P62937 whole entry): as the sequence (P62937 whole entry) above
KRAS Q61H, sequence (P01116 1-169 isoform P01116-2 Q61H limits assumed): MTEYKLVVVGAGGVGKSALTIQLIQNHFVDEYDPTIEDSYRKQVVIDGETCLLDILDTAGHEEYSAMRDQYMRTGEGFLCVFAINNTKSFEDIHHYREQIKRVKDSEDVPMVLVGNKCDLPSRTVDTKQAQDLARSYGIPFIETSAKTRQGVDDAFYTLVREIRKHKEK
KRAS Q61H, sequence (P62937 whole entry): as the sequence (P62937 whole entry) above
KRAS G12C, sequence (P01116 1-169 isoform P01116-2 G12C): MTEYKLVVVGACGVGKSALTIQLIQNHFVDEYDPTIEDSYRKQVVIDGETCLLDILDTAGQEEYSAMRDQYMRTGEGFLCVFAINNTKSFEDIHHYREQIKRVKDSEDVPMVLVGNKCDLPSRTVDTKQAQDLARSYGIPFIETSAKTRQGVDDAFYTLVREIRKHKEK
KRAS G12C, sequence (P62937 whole entry): as the sequence (P62937 whole entry) above
NRAS Q61K, sequence (P01111 whole entry Q61K): as the sequence (P01111 whole entry G12C) above, with C12G, Q61K counted along it
NRAS Q61K, sequence (P62937 whole entry): as the sequence (P62937 whole entry) above
KRAS WT, sequence (P01116 1-169 isoform P01116-2 limits assumed): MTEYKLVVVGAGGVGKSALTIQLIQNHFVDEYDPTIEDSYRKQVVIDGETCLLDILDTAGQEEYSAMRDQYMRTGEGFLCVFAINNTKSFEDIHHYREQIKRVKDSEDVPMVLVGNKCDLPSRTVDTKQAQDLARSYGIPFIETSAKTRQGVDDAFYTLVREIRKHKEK
KRAS WT, sequence (P62937 whole entry): as the sequence (P62937 whole entry) above
KRAS G12S, sequence (P01116 1-169 isoform P01116-2 G12S limits assumed): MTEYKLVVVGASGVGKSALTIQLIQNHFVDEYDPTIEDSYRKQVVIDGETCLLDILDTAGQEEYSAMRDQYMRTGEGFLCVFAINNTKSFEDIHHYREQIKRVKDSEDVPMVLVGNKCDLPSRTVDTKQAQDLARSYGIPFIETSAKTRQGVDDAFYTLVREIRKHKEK
KRAS G12S, sequence (P62937 whole entry): as the sequence (P62937 whole entry) above
KRAS G12V, sequence (P01116 1-169 isoform P01116-2 G12V limits assumed): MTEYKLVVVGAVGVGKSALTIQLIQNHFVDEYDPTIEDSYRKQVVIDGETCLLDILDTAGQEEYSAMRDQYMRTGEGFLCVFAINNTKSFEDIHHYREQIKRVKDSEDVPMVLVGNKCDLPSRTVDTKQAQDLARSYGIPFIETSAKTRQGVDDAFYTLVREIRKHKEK
KRAS G12V, sequence (P62937 whole entry): as the sequence (P62937 whole entry) above
KRAS G13D, sequence (P01116 1-169 isoform P01116-2 G13D limits assumed): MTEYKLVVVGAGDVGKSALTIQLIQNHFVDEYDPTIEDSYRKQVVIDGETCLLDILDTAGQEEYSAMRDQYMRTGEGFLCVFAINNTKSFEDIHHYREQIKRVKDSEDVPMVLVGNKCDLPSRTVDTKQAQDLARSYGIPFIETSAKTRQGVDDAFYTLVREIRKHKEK
KRAS G13D, sequence (P62937 whole entry): as the sequence (P62937 whole entry) above
KRAS G12D, sequence (P01116 1-169 isoform P01116-2 G12D limits assumed): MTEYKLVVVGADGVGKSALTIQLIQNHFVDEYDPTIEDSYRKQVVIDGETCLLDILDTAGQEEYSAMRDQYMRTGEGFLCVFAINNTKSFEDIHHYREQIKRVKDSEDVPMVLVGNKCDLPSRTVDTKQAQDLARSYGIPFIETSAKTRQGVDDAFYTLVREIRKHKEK
KRAS G12D, sequence (P62937 whole entry): as the sequence (P62937 whole entry) above
NRAS Q61R, sequence (P01111 whole entry Q61R): as the sequence (P01111 whole entry G12C) above, with C12G, Q61R counted along it
NRAS Q61R, sequence (P62937 whole entry): as the sequence (P62937 whole entry) above

Structure (SMILES) | IC50 (KRAS G12C) [nM] | IC50 (KRAS G12D) [nM] | IC50 (KRAS G12S) [nM] | IC50 (KRAS G12V) [nM] | IC50 (KRAS G13C) [nM] | IC50 (KRAS G13D) [nM] | IC50 (KRAS WT) [nM] | IC50 (NRAS G12C) [nM] | IC50 (KRAS Q61H) [nM] | IC50 (NRAS Q61K) [nM] | IC50 (NRAS Q61R) [nM]
C=CC(=O)N1CCO[C@H]2CN(C(=O)N(C)[C@H](C(=O)N[C@H]3Cc4cccc(n4)-c4ccc5c(c4)c(c(-c4cccnc4[C@H](C)OC)n5CC(F)(F)F)CC(C)(C)COC(=O)C4CCCN(N4)C3=O)C(C)C)C[C@H]21 (some centres unmarked) [Example A595] | 10 to 100 | 1000 to 10000 | 1000 to 10000 | 1000 to 10000 | 10 to 100 | 1000 to 10000 | 100 to 1000 | 10 to 100 | 100 to 1000 | 100 to 1000 | 100 to 1000
C=CC(=O)N1CCC2(C1)CN(C(=O)N(C)[C@H](C(=O)N[C@H]1Cc3nc(cs3)-c3ccc4c(c3)c(c(-c3cccnc3[C@H](C)OC)n4CC(F)(F)F)CC(C)(C)COC(=O)C3CCCN(N3)C1=O)C(C)C)C2 (some centres unmarked) [Example A603] | 10 to 100 | 100 to 1000 | 100 to 1000 | 100 to 1000 | 10 to 100 | 100 to 1000 | 10 to 100 | 10 to 100 | 10 to 100 | 10 to 100 | 10 to 100
C=CC(=O)N1CCOC2(CCN(C(=O)N(C)[C@H](C(=O)N[C@H]3Cc4cc(CF)cc(c4)-c4ccc5c(c4)c(c(-c4cccnc4[C@H](C)OC)n5CC(F)(F)F)CC(C)(C)COC(=O)C4CCCN(N4)C3=O)C(C)C)CC2)C1 (some centres unmarked) [Example A605] | 100 to 1000 | 100 to 1000 | 100 to 1000 | 100 to 1000 | 10 to 100 | 100 to 1000 | 10 to 100 | 100 to 1000 | 10 to 100 | 100 to 1000 | 100 to 1000
C=CC(=O)N1CCOC2(CCN(C(=O)N(C)[C@H](C(=O)N[C@H]3Cc4nc(n(C)n4)-c4ccc5c(c4)c(c(-c4cccnc4[C@H](C)OC)n5CC(F)(F)F)CC(C)(C)COC(=O)C4CCCN(N4)C3=O)C(C)C)CC2)C1 (some centres unmarked) [Example A606] | 100 to 1000 | 1000 to 10000 | 100 to 1000 | 100 to 1000 | 10 to 100 | 100 to 1000 | 100 to 1000 | 100 to 1000 | 10 to 100 | 100 to 1000 | 100 to 1000
C=CC(=O)N1CCOC2(CCN(C(=O)N(C)[C@H](C(=O)N[C@H]3Cc4cccc(c4)-c4ccc5c(c4)c(c(-c4cccnc4[C@H](C)OC)n5CC(F)(F)F)CC(C)(C)COC(=O)C4CCCN(N4)C3=O)C(C)C)CC2)C1 (some centres unmarked) [Example A608] | 100 to 1000 | 100 to 1000 | 100 to 1000 | 100 to 1000 | 10 to 100 | 100 to 1000 | 100 to 1000 | 100 to 1000 | 10 to 100 | 100 to 1000 | 100 to 1000
C=CC(=O)N1CCO[C@H]2CCN(C(=O)N(C)[C@H](C(=O)N[C@H]3Cc4nc(cs4)-c4ccc5c(c4)c(c(-c4cccnc4[C@H](C)OC)n5CC)CC(C)(C)COC(=O)C4CCCN(N4)C3=O)C(C)C)C[C@@H]21 (some centres unmarked) [Example A609] | < 10 | 100 to 1000 | 10 to 100 | 10 to 100 | 10 to 100 | 100 to 1000 | 10 to 100 | < 10 | 10 to 100 | 10 to 100 | 10 to 100
C=CC(=O)N1CCO[C@H]2CN(C(=O)N(C)[C@H](C(=O)N[C@H]3Cc4cccc(c4)-c4ccc5c(c4)c(c(-c4cccnc4[C@H](C)OC)n5CC)CC(C)(C)COC(=O)C4CCCN(N4)C3=O)C(C)C)C[C@H]21 (some centres unmarked) [Example A610] | 10 to 100 | 1000 to 10000 | 1000 to 10000 | 1000 to 10000 | 10 to 100 | 1000 to 10000 | 100 to 1000 | 10 to 100 | 100 to 1000 | 100 to 1000 | 100 to 1000
